Experimental data reported in ChEMBL document CHEMBL1122120, “Brain levels and metabolism of the dopaminergic agonist 2-amino-6,7-dihydroxytetrahydronaphthalene after administration of various prodrugs” (J Med Chem, 1982).

Columns and labels:
[1] = Tested for the stability in water after 24h, activity expressed as percentage hydrolysis; assay type: physicochemical; conditions: read-out: Hydrolysis
[2] = Tested for the stability in water after 6h, activity expressed as percentage hydrolysis; assay type: physicochemical; conditions: read-out: Hydrolysis

Row | SMILES | degraded at 24 h [1] | degraded at 6 h [2]
1 | CC(=O)Oc1cc2c(cc1OC(C)=O)CC(N)CC2 (stereo not drawn) | 3.74% | 1.64%
2 | CC(C)C(=O)Oc1cc2c(cc1OC(=O)C(C)C)CC(N)CC2 (stereo not drawn) | 0.23% | 0.06%
3 | CC(C)(C)C(=O)Oc1cc2c(cc1OC(=O)C(C)(C)C)CC(N)CC2 (stereo not drawn) | 0.02% | 0.01%
4 | NC1CCc2cc(OC(=O)c3ccccc3)c(OC(=O)c3ccccc3)cc2C1 (stereo not drawn) | 0.06% | 0.03%
